# Results from PMC6555645 (Angewandte Chemie (International ed. in English), 2019).
# What was measured:
# Tar14 = target: T1, Tar14 (Saccharomonospora piscinae, UniProt W5VG40); test: in vitro chlorination assay; type: biochemical; conditions: with flavin and a flavin reductase system; chloride
# T1 sequence (W5VG40 1-534): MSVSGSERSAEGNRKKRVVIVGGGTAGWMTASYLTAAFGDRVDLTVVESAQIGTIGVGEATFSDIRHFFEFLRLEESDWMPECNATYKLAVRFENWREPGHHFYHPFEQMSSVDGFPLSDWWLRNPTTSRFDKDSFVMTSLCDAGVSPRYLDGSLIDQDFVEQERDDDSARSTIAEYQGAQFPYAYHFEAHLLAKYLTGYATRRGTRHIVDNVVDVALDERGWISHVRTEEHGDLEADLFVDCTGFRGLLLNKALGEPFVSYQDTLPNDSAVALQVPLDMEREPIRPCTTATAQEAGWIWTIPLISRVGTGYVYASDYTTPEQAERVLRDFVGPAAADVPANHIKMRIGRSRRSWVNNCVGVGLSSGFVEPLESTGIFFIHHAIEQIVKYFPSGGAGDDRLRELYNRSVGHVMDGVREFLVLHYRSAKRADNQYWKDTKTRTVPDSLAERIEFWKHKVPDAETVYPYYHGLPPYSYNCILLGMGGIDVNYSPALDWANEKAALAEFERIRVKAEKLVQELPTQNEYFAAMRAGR
# Tar13 = target: T2, Tar13 (Saccharomonospora piscinae, UniProt W5VMS0); test: in vitro dioxygenase assay; type: biochemical; conditions: heme-dependent TDO; O2
# T2 sequence (W5VMS0 1-236): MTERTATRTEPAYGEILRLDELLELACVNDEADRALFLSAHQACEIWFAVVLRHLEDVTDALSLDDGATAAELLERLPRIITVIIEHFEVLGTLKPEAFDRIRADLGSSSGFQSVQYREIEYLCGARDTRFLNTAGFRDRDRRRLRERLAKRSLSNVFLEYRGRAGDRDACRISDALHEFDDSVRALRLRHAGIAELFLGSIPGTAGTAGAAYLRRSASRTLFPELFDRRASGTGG
Km (Tar14) [µM],Km (Tar13) [µM],Structure (SMILES)
12,–,"N[C@@H](Cc1c[nH]c2ccccc12)C(=O)O [compound 4, L-Trp]"
–,112,"N[C@@H](Cc1c[nH]c2cc(Cl)ccc12)C(=O)O [compound 7, L-6-Cl-Trp]"
